Laboratory results: the NIST ThermoML archive (doi:10.1016/j.jct.2014.12.011)

Assay: mn = molality of the nth substance listed, in mol/kg
Settings: 100 kPa, Liquid, Alternating current cell with electrodes

CCCCCCCCCC(=O)[O-].[Na+] [sodium decanoate] + O
electrical conductivity [S/m]
Settings | 278.15 K | 288.15 K | 298.15 K | 308.15 K | 318.15 K | 328.15 K
m1 = 0.01638 | 0.0626 | 0.083 | 0.106 | 0.131 | 0.157 | 0.184
m1 = 0.03189 | 0.116 | 0.155 | 0.198 | 0.244 | 0.292 | 0.344
m1 = 0.04823 | 0.17 | 0.226 | 0.288 | 0.356 | 0.428 | 0.504
m1 = 0.06109 | 0.21 | 0.279 | 0.357 | 0.441 | 0.53 | 0.625
m1 = 0.07519 | 0.2524 | 0.336 | 0.429 | 0.531 | 0.639 | 0.753
m1 = 0.09179 | 0.3003 | 0.399 | 0.5112 | 0.632 | 0.7605 | 0.896
m1 = 0.1079 | 0.344 | 0.459 | 0.584 | 0.719 | 0.865 | 1.021
m1 = 0.1249 | 0.388 | 0.5125 | 0.647 | 0.795 | 0.958 | 1.135
m1 = 0.1434 | 0.429 | 0.559 | 0.705 | 0.869 | 1.05 | 1.25
m1 = 0.1608 | 0.46 | 0.599 | 0.758 | 0.936 | 1.134 | 1.35
m1 = 0.1798 | 0.489 | 0.6405 | 0.8135 | 1.008 | 1.224 | 1.46
m1 = 0.1991 | 0.519 | 0.6831 | 0.8715 | 1.08 | 1.316 | 1.57
m1 = 0.2177 | 0.547 | 0.724 | 0.927 | 1.15 | 1.405 | 1.68
m1 = 0.2366 | 0.576 | 0.766 | 0.984 | 1.228 | 1.5 | 1.78
m1 = 0.2557 | 0.605 | 0.809 | 1.043 | 1.303 | 1.59 | 1.89

CCCCCCCCCCCC(=O)[O-].[Na+] [sodium dodecanoate] + O
Settings | electrical conductivity [S/m]
298.15 K, m1 = 0.01084 | 0.0726
298.15 K, m1 = 0.01211 | 0.0809
298.15 K, m1 = 0.01337 | 0.0892
298.15 K, m1 = 0.01462 | 0.0974
298.15 K, m1 = 0.01585 | 0.105
298.15 K, m1 = 0.01707 | 0.113
298.15 K, m1 = 0.01827 | 0.121
298.15 K, m1 = 0.01946 | 0.129
298.15 K, m1 = 0.02064 | 0.136
298.15 K, m1 = 0.0218 | 0.143
298.15 K, m1 = 0.02295 | 0.151
298.15 K, m1 = 0.02408 | 0.158
298.15 K, m1 = 0.0252 | 0.165
298.15 K, m1 = 0.02631 | 0.172
298.15 K, m1 = 0.02741 | 0.178
298.15 K, m1 = 0.02849 | 0.183
298.15 K, m1 = 0.02957 | 0.187
298.15 K, m1 = 0.03063 | 0.1909
298.15 K, m1 = 0.03168 | 0.194
298.15 K, m1 = 0.03271 | 0.198
298.15 K, m1 = 0.03374 | 0.201
298.15 K, m1 = 0.03476 | 0.204
298.15 K, m1 = 0.03576 | 0.207
298.15 K, m1 = 0.03675 | 0.2102
308.15 K, m1 = 0.01107 | 0.0928
308.15 K, m1 = 0.01239 | 0.103
308.15 K, m1 = 0.0137 | 0.114
308.15 K, m1 = 0.01499 | 0.125
308.15 K, m1 = 0.01626 | 0.135
308.15 K, m1 = 0.01752 | 0.145
308.15 K, m1 = 0.01876 | 0.155
308.15 K, m1 = 0.01999 | 0.165
308.15 K, m1 = 0.0212 | 0.175
308.15 K, m1 = 0.0224 | 0.185
308.15 K, m1 = 0.02359 | 0.194
308.15 K, m1 = 0.02476 | 0.203
308.15 K, m1 = 0.02591 | 0.212
308.15 K, m1 = 0.02706 | 0.219
308.15 K, m1 = 0.02819 | 0.225
308.15 K, m1 = 0.0293 | 0.231
308.15 K, m1 = 0.03041 | 0.236
308.15 K, m1 = 0.0315 | 0.2405
308.15 K, m1 = 0.03257 | 0.245
308.15 K, m1 = 0.03364 | 0.249
308.15 K, m1 = 0.0347 | 0.254
308.15 K, m1 = 0.03574 | 0.258
308.15 K, m1 = 0.03677 | 0.262
308.15 K, m1 = 0.03779 | 0.266
318.15 K, m1 = 0.01302 | 0.131
318.15 K, m1 = 0.01423 | 0.142
318.15 K, m1 = 0.01542 | 0.154
318.15 K, m1 = 0.0166 | 0.165
318.15 K, m1 = 0.01777 | 0.176
318.15 K, m1 = 0.01892 | 0.188
318.15 K, m1 = 0.02006 | 0.198
318.15 K, m1 = 0.02118 | 0.209
318.15 K, m1 = 0.02229 | 0.22
318.15 K, m1 = 0.02339 | 0.23
318.15 K, m1 = 0.02448 | 0.24
318.15 K, m1 = 0.02555 | 0.249
318.15 K, m1 = 0.02661 | 0.258
318.15 K, m1 = 0.02766 | 0.265
318.15 K, m1 = 0.0287 | 0.272
318.15 K, m1 = 0.02972 | 0.278
318.15 K, m1 = 0.03074 | 0.283
318.15 K, m1 = 0.03174 | 0.288
318.15 K, m1 = 0.03274 | 0.293
318.15 K, m1 = 0.03372 | 0.298
318.15 K, m1 = 0.03469 | 0.303
318.15 K, m1 = 0.03565 | 0.308
318.15 K, m1 = 0.0366 | 0.312
318.15 K, m1 = 0.03754 | 0.317
328.15 K, m1 = 0.01297 | 0.151
328.15 K, m1 = 0.01413 | 0.164
328.15 K, m1 = 0.01527 | 0.177
328.15 K, m1 = 0.01641 | 0.189
328.15 K, m1 = 0.01752 | 0.202
328.15 K, m1 = 0.01863 | 0.214
328.15 K, m1 = 0.01972 | 0.226
328.15 K, m1 = 0.0208 | 0.238
328.15 K, m1 = 0.02187 | 0.249
328.15 K, m1 = 0.02292 | 0.26
328.15 K, m1 = 0.02397 | 0.271
328.15 K, m1 = 0.025 | 0.282
328.15 K, m1 = 0.02602 | 0.293
328.15 K, m1 = 0.02703 | 0.303
328.15 K, m1 = 0.02802 | 0.311
328.15 K, m1 = 0.02901 | 0.319
328.15 K, m1 = 0.02999 | 0.326
328.15 K, m1 = 0.03095 | 0.332
328.15 K, m1 = 0.03191 | 0.338
328.15 K, m1 = 0.03285 | 0.344
328.15 K, m1 = 0.03379 | 0.35
328.15 K, m1 = 0.03471 | 0.355
328.15 K, m1 = 0.03563 | 0.36
328.15 K, m1 = 0.03653 | 0.366

CCCCCCCC(=O)[O-].[Na+] [sodium octanoate] + O
electrical conductivity [S/m]
Settings | 278.15 K | 288.15 K | 298.15 K | 308.15 K | 318.15 K | 328.15 K
m1 = 0.04715 | 0.168 | 0.223 | 0.284 | 0.35 | 0.421 | 0.494
m1 = 0.0899 | 0.299 | 0.398 | 0.508 | 0.627 | 0.754 | 0.885
m1 = 0.132 | 0.416 | 0.555 | 0.709 | 0.876 | 1.06 | 1.242
m1 = 0.1699 | 0.5102 | 0.6723 | 0.856 | 1.06 | 1.28 | 1.522
m1 = 0.2149 | 0.606 | 0.797 | 1.02 | 1.27 | 1.538 | 1.845
m1 = 0.2635 | 0.6914 | 0.924 | 1.18 | 1.47 | 1.88 | 2.213
m1 = 0.3059 | – | 0.976 | 1.29 | 1.742 | 2.106 | 2.49
m1 = 0.3464 | – | 1.18 | 1.536 | 1.913 | 2.314 | 2.734
m1 = 0.3898 | – | 1.29 | 1.67 | 2.09 | 2.526 | 2.99
m1 = 0.4368 | 1.015 | 1.4 | 1.811 | 2.26 | 2.74 | 3.25
m1 = 0.4813 | 1.09 | 1.49 | 1.934 | 2.42 | 2.938 | 3.48
m1 = 0.5288 | 1.16 | 1.58 | 2.06 | 2.58 | 3.138 | 3.719
m1 = 0.5785 | 1.224 | 1.68 | 2.19 | 2.75 | 3.34 | 3.96
m1 = 0.63 | 1.29 | 1.77 | 2.317 | 2.912 | 3.545 | 4.205
m1 = 0.6829 | 1.35 | 1.87 | 2.45 | 3.08 | 3.75 | 4.448
m1 = 0.7337 | 1.412 | 1.96 | 2.57 | 3.236 | 3.94 | 4.68
